Measurements taken from patent US20240043427A1 (Gilead Sciences, Inc., priority 2020, published 2024).

Assays:
[1] = target: T1, CD73 (Homo sapiens (Human), UniProt P21589); test: MDA-MB-231 Cell Based CD73 Activity Assay (DMEM); conditions: MDA-MB-231-GFP cells, DMEM medium with 10% human plasma, 200 uM AMP
[2] = target: T1, CD73; type: biochemical; conditions: 1 mM NaH2PO4 in enzyme buffer, CD73 0.3 nM, AMP 15 uM

T1 sequence (P21589 27-574): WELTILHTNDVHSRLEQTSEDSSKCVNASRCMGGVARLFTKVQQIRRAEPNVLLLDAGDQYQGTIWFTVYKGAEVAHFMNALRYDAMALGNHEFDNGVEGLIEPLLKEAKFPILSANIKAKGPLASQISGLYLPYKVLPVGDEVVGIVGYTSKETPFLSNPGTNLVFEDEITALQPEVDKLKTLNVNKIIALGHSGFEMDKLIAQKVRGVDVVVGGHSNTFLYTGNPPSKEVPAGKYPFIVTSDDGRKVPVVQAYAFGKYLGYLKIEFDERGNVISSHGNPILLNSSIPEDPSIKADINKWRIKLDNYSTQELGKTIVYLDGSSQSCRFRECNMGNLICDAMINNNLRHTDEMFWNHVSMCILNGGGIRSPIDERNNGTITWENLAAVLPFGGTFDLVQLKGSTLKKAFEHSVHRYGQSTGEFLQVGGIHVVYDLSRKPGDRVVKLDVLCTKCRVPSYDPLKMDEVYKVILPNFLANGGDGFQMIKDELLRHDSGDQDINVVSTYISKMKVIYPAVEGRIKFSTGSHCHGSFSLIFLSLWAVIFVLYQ

Row | EC50 [1] | IC50 [2] | Structure (SMILES)
1 | 0.00016 µM | 0.00069 µM | O=C1N(CC(F)(F)F)c2cc([C@H]3C[C@@H]3c3cc(-c4c[nH]c(=O)[nH]c4=O)nn4c(F)cnc34)ccc2C12CC2 [Example 381, 5-(3-fluoro-8-((1S,2S)-2-(2′-oxo-1′-(2,2,2-trifluoroethyl)spiro[cyclopropane-1,3′-indolin]-6′-yl)cyclopropyl)imidazo[1,2-b]pyridazin-6-yl)pyrimidine-2,4(1H,3H)-dione]
2 | 0.00024 µM | 0.00127 µM | O=C1N(CC(F)(F)F)c2cc([C@H]3C[C@@H]3c3cc(-c4c[nH]c(=O)[nH]c4=O)nn4ccnc34)ccc2C12CCC2 [Example 384, 5-(8-((1S,2S)-2-(2′-oxo-1′-(2,2,2-trifluoroethyl)spiro[cyclobutane-1,3′-indolin]-6′-yl)cyclopropyl)imidazo[1,2-b]pyridazin-6-yl)pyrimidine-2,4(1H,3H)-dione]
3 | 0.00025 µM | 0.00068 µM | O=C1N(CC(F)(F)F)c2cc([C@H]3C[C@@H]3c3cc(-c4c[nH]c(=O)[nH]c4=O)nn4c(F)cnc34)ccc2C12CCCC2 [Example 385, 5-(3-fluoro-8-((1S,2S)-2-(2′-oxo-1′-(2,2,2-trifluoroethyl)spiro[cyclopentane-1,3′-indolin]-6′-yl)cyclopropyl)imidazo[1,2-b]pyridazin-6-yl)pyrimidine-2,4(1H,3H)-dione]
4 | 0.00028 µM | 0.00092 µM | O=C1N(CC(F)(F)F)c2cc([C@H]3C[C@@H]3c3cc(-c4c[nH]c(=O)[nH]c4=O)nn4c(F)cnc34)ccc2C12CCC2 [Example 386, 5-(3-fluoro-8-((1S,2S)-2-(2′-oxo-1′-(2,2,2-trifluoroethyl)spiro[cyclobutane-1,3′-indolin]-6′-yl)cyclopropyl)imidazo[1,2-b]pyridazin-6-yl)pyrimidine-2,4(1H,3H)-dione]
5 | 0.00036 µM | 0.00127 µM | O=C1N(CC(F)(F)F)c2cc([C@H]3C[C@@H]3c3cc(-c4c[nH]c(=O)[nH]c4=O)nn4ccnc34)ccc2C12CCCC2 [Example 387, 5-(8-((1S,2S)-2-(2′-oxo-1′-(2,2,2-trifluoroethyl)spiro[cyclopentane-1,3′-indolin]-6′-yl)cyclopropyl)imidazo[1,2-b]pyridazin-6-yl)pyrimidine-2,4(1H,3H)-dione]
6 | 0.00021 µM | 0.00041 µM | O=C1N(CC(F)(F)F)c2cc([C@H]3C[C@@H]3c3cc(-c4c[nH]c(=O)[nH]c4=O)nn4c(Cl)cnc34)ccc2C12CC2 [Example 388, 5-(3-chloro-8-((1S,2S)-2-(2′-oxo-1′-(2,2,2-trifluoroethyl)spiro[cyclopropane-1,3′-indolin]-6′-yl)cyclopropyl)imidazo[1,2-b]pyridazin-6-yl)pyrimidine-2,4(1H,3H)-dione]
7 | 0.00034 µM | 0.00125 µM | O=c1[nH]cc(-c2cc([C@H]3C[C@@H]3c3cc4c(cn3)c(F)cn4CC(F)(F)F)c3nccn3n2)c(=O)[nH]1 [Example 392, 5-(8-((1S,2S)-2-(3-fluoro-1-(2,2,2-trifluoroethyl)-1H-pyrrolo[3,2-c]pyridin-6-yl)cyclopropyl)imidazo[1,2-b]pyridazin-6-yl)pyrimidine-2,4(1H,3H)-dione]
8 | 0.00016 µM | 0.00074 µM | O=c1[nH]cc(-c2cc([C@H]3C[C@@H]3c3ccc4c(F)nn(CC(F)(F)F)c4c3)c3nccn3n2)c(=O)[nH]1 [Example 393, 5-(8-((1S,2S)-2-(3-fluoro-1-(2,2,2-trifluoroethyl)-1H-indazol-6-yl)cyclopropyl)imidazo[1,2-b]pyridazin-6-yl)pyrimidine-2,4(1H,3H)-dione]
9 | > 0.25 µM | 0.00594 µM | O=c1[nH]cc(-c2cc([C@H]3C[C@@H]3c3cc(C(F)(F)F)c4cccnc4c3)c3nccn3n2)c(=O)[nH]1 [Example 394, 5-(8-((1S,2S)-2-(5-(trifluoromethyl)quinolin-7-yl)cyclopropyl)imidazo[1,2-b]pyridazin-6-yl)pyrimidine-2,4(1H,3H)-dione]
10 | 0.0299 µM | 0.0021 µM | O=c1[nH]cc(-c2cc([C@H]3C[C@@H]3c3cnc4c(C(F)(F)F)cccc4c3)c3nccn3n2)c(=O)[nH]1 [Example 395, 5-(8-((1S,2S)-2-(8-(trifluoromethyl)quinolin-3-yl)cyclopropyl)imidazo[1,2-b]pyridazin-6-yl)pyrimidine-2,4(1H,3H)-dione]
11 | 0.0225 µM | 0.0153 µM | O=c1[nH]cc(-c2cc(N3CC(F)(C(F)(F)F)C3)c3nccn3n2)c(=O)[nH]1 [Example 397, 5-(8-(3-fluoro-3-(trifluoromethyl)azetidin-1-yl)imidazo[1,2-b]pyridazin-6-yl)pyrimidine-2,4(1H,3H)-dione]
12 | 0.0295 µM | 0.0171 µM | O=c1[nH]cc(-c2cc(N3CC4(CCC4)C3)c3nccn3n2)c(=O)[nH]1 [Example 398, 5-(8-(2-azaspiro[3.3]heptan-2-yl)imidazo[1,2-b]pyridazin-6-yl)pyrimidine-2,4(1H,3H)-dione]
13 | 0.027 µM | 0.0122 µM | CC1(C(F)F)CN(c2cc(-c3c[nH]c(=O)[nH]c3=O)nn3ccnc23)C1 [Example 399, 5-(8-(3-(difluoromethyl)-3-methylazetidin-1-yl)imidazo[1,2-b]pyridazin-6-yl)pyrimidine-2,4(1H,3H)-dione]
14 | 0.547 µM | 0.207 µM | O=c1[nH]cc(-c2cc(N3CC(C4CC4(F)F)C3)c3nccn3n2)c(=O)[nH]1 (centres unmarked) [Example 400, 5-(8-(3-(2,2-difluorocyclopropyl)azetidin-1-yl)imidazo[1,2-b]pyridazin-6-yl)pyrimidine-2,4(1H,3H)-dione]
15 | 0.053 µM | 0.0126 µM | O=c1[nH]cc(-c2cc(N3CC(C4CCC4)C3)c3nccn3n2)c(=O)[nH]1 [Example 401, 5-(8-(3-cyclobutylazetidin-1-yl)imidazo[1,2-b]pyridazin-6-yl)pyrimidine-2,4(1H,3H)-dione]
16 | 0.136 µM | 0.0532 µM | O=c1[nH]cc(-c2cc(N3CC(F)(C(F)(F)F)C3)n3ncnc3n2)c(=O)[nH]1 [Example 402, 5-(7-(3-fluoro-3-(trifluoromethyl)azetidin-1-yl)-[1,2,4]triazolo[1,5-a]pyrimidin-5-yl)pyrimidine-2,4(1H,3H)-dione]
17 | 0.0285 µM | 0.00894 µM | O=c1[nH]cc(-c2cc(N3CC(C(F)F)C3)c3nccn3n2)c(=O)[nH]1 [Example 403, 5-(8-(3-(difluoromethyl)azetidin-1-yl)imidazo[1,2-b]pyridazin-6-yl)pyrimidine-2,4(1H,3H)-dione]
18 | 0.0776 µM | 0.0229 µM | O=c1[nH]cc(-c2cc(N3CC(C4CC4)C3)c3nccn3n2)c(=O)[nH]1 [Example 404, 5-(8-(3-cyclopropylazetidin-1-yl)imidazo[1,2-b]pyridazin-6-yl)pyrimidine-2,4(1H,3H)-dione]
19 | 0.0216 µM | 0.0083 µM | O=c1[nH]cc(-c2cc(N3CC4(CCC4(F)F)C3)c3nccn3n2)c(=O)[nH]1 [Example 405, 5-(8-(5,5-difluoro-2-azaspiro[3.3]heptan-2-yl)imidazo[1,2-b]pyridazin-6-yl)pyrimidine-2,4(1H,3H)-dione]
20 | 0.0982 µM | 0.0256 µM | O=c1[nH]cc(-c2cc(N3CC4(C3)CC4(F)F)c3nccn3n2)c(=O)[nH]1 [Example 406, 5-(8-(1,1-difluoro-5-azaspiro[2.3]hexan-5-yl)imidazo[1,2-b]pyridazin-6-yl)pyrimidine-2,4(1H,3H)-dione]
21 | 0.0378 µM | 0.0107 µM | CC(C)(F)C1CN(c2cc(-c3c[nH]c(=O)[nH]c3=O)nn3ccnc23)C1 [Example 409, 5-(8-(3-(2-fluoropropan-2-yl)azetidin-1-yl)imidazo[1,2-b]pyridazin-6-yl)pyrimidine-2,4(1H,3H)-dione]
22 | 0.928 µM | 0.817 µM | O=c1[nH]cc(-c2cc(C3CCOCC3)c3nccn3n2)c(=O)[nH]1 [Example 410, 5-(8-(tetrahydro-2H-pyran-4-yl)imidazo[1,2-b]pyridazin-6-yl)pyrimidine-2,4(1H,3H)-dione]
23 | 0.00393 µM | 0.00079 µM | N#Cc1ccc([C@H]2C[C@@H]2c2cc(-c3c[nH]c(=O)[nH]c3=O)nn3c(F)cnc23)cc1F [Example 415, 4-((1S,2S)-2-(6-(2,4-dioxo-1,2,3,4-tetrahydropyrimidin-5-yl)-3-fluoroimidazo[1,2-b]pyridazin-8-yl)cyclopropyl)-2-fluorobenzonitrile]
24 | 0.00471 µM | 0.00096 µM | O=c1[nH]cc(-c2cc([C@H]3C[C@@H]3c3ccc(C(F)F)cc3)c3nccn3n2)c(=O)[nH]1 [Example 418, 5-(8-((1S,2S)-2-(4-(difluoromethyl)phenyl)cyclopropyl)imidazo[1,2-b]pyridazin-6-yl)pyrimidine-2,4(1H,3H)-dione]
25 | 0.0089 µM | 0.00123 µM | O=c1[nH]cc(-c2cc([C@H]3C[C@@H]3c3ccc(C(F)F)cc3)c3ncc(F)n3n2)c(=O)[nH]1 [Example 419, 5-(8-((1S,2S)-2-(4-(difluoromethyl)phenyl)cyclopropyl)-3-fluoroimidazo[1,2-b]pyridazin-6-yl)pyrimidine-2,4(1H,3H)-dione]
26 | 0.0137 µM | 0.00487 µM | CC1(C)CN(c2cc(-c3c[nH]c(=O)[nH]c3=O)nc3ncnn23)CC1(F)F [Example 420, 5-(7-(3,3-difluoro-4,4-dimethylpyrrolidin-1-yl)-[1,2,4]triazolo[1,5-a]pyrimidin-5-yl)pyrimidine-2,4(1H,3H)-dione]
27 | 0.0651 µM | 0.031 µM | CC1(C)CN(c2cc(-c3c[nH]c(=O)[nH]c3=O)nc3nccn23)CC1(F)F [Example 421, 5-(5-(3,3-difluoro-4,4-dimethylpyrrolidin-1-yl)imidazo[1,2-a]pyrimidin-7-yl)pyrimidine-2,4(1H,3H)-dione]
28 | 0.155 µM | 0.0727 µM | Cc1nc2c(N3CC(C)(C)C(F)(F)C3)cc(-c3c[nH]c(=O)[nH]c3=O)nn2c1F [Example 422, 5-(8-(3,3-difluoro-4,4-dimethylpyrrolidin-1-yl)-3-fluoro-2-methylimidazo[1,2-b]pyridazin-6-yl)pyrimidine-2,4(1H,3H)-dione]
